≈ marks a conversion by molar mass, not a printed value. Like-named read-outs stand apart in the source and are kept apart here.
Legend:
[1] = tested on: T. gondii; conditions: values from the earlier paper; ref [25]; cited from earlier work
[2] = tested on: Hs27 (human foreskin fibroblast); experiment: Cytotoxicity assay (MTT); type: cell-based; conditions: 24 h treatment
[3] = tested on: T. gondii RH-GFP; experiment: microbe, parasite or virus in culture; type: cell-based, Toxoplasma gondii
Protocol: Cell and parasite culture: The Hs27 (human foreskin fibroblast) (ATCC® CRL-1634™) (ATCC, Manassas, VA, USA) were culturing in DMEM (Dulbecco’s modified Eagle’s medium-ATCC® 30-2002™, ATCC) supplemented with 10% fetal bovine serum (fetal bovine serum, ATCC® 30-2020™, ATCC), 100 I.U./mL penicillin and 100 μg/mL streptomycin (penicillin-streptomycin solution ATCC® 30-2300™, ATCC). Cells were trypsinized (Trypsin-EDTA Solution ATCC® 30-2101™, ATCC) twice a week and seeded at a density of 1 × 10^6 per T25 cell culture flask and incubated in a 37 °C and 5% CO2 to achieve a confluent monolayer. The RH strain of Toxoplasma gondii (RH-GFP ATCC® 50940™, ATCC, highly virulent, haplogroup first, expression of green fluorescent protein) was maintained as tachyzoites, in parasite culture medium, which contains DMEM medium with 3% HIFBS (heat-inactivated FBS; 1 h in 56 °C). Infected tissue culture cells were incubated in a 37 °C and 5% CO2.
After 72 h of incubation, the medium was removed and then 1 × 10^5 per well of tachyzoites of the RH strain were added to the cell monolayers, in DMEM without phenol red with 3% HIFBS. One hour later, the compounds and drugs dilutions in the DMEM without phenol red medium were added to the Hs27 cells with T. gondii. Concentration of the compounds below cytotoxic concentration (<CC30), sulfadiazine 0–10,000 μM and trimethoprim, pyrimethamine and atovaquone 0–200 μM. After a subsequent 96 h of incubation, the plates were read with covered lids, and both excitation (475 nm) and emission (509 nm) from the bottom using multimode microplate reader SpectraMax® i3. The results were expressed as mean fluorescent intensity (MFI) and transformed to the percentage of viability compared to untreated cells. Finally, the inhibitory concentrations for 50% inhibition of T. gondii proliferation (IC50) were calculated. All experiments were performed in triplicate.
Graphs and statistical analyses: Statistical analyses and graphs were performed using GraphPad Prism version 9.0.0 for macOS (GraphPad Software, San Diego, CA, USA). […] Additionally, a relationship between cytotoxicity and antiparasitic activity were calculated as the ratio of the 30% cytotoxic concentration (CC30) to the 50% antiparasitic concentration (IC50) and presented as the selectivity index (SI).

[4] = tested on: tachyzoites of the RH-GFP strain; experiment: Influence of compounds during Toxoplasma growth, Assay B (intracellular proliferation); type: cell-based, Toxoplasma gondii; conditions: 3 h infection without compound, washed, 24 h with compound at IC50
Protocol: (§1) Influence of Compounds during Toxoplasma Growth (Assay A and B): Hs27 cells were cultured on Lab-Tek™ 4-well Chamber Slides (Nunc, Thermo Fisher Scientific, Waltham, MA, USA) (5 × 10^4 cells/500 μL per well).
Assay B—after 48 h, the medium was removed and then 5 × 10^5/500 µL/well tachyzoites of the RH-GFP strain were added to the cell monolayers, in parasite culture medium for 3 h.
(§2) In both assays as the controls, Hs27 cells were infected, but not treated. After subsequent 24 h of incubation (Assay A and B), the slides were washed with sterile PBS, fixed with formaldehyde solution (252549, Sigma-Aldrich), 3.7% in PBS for 20 min and stained with DAPI for 10 min (1 mg/mL, ThermoFisher Scientific). Microscopic analysis of 100 cells in turn, comprised of counting the infected cell ratio and tachyzoites per each parasitophorous vacuoles of infected cell, was performed using a fluorescent microscope (Axio Scope.A1, Carl Zeiss, Jena, Germany) at a magnification ×1000. For image processing ZEISS ZEN Microscope Software version 3.1 was used. Three independent experiments on triplicate chamber slides using the same conditions for both assays were performed.

[5] = tested on: tachyzoites of the RH-GFP strain; experiment: Influence of compounds during Toxoplasma growth, Assay A (invasion); type: cell-based, Toxoplasma gondii; conditions: compound at IC50 present 3 h during infection, washed, 24 h free medium; vs non-treated
Protocol: as §1
Assay A—after 48 h, the medium was removed and then 5 × 10^5/500 µL/well tachyzoites of the RH-GFP strain were added to the cell monolayers, in parasite culture medium with the selected compounds at IC50 concentration: 2b, 5b, 8b, 11b or 12b, for 3 h. Then, the cells were washed to remove extracellular parasites and parasite culture medium (without any compounds) was added for 24 h.
as §2

[6] = tested on: T. gondii RH-GFP; experiment: Kinetics of T. gondii growth, Assay 1 (intracellular tachyzoites); type: cell-based, Toxoplasma gondii; conditions: Assay 1 and Assay 2, Figure 12
Protocol: Kinetics of T. gondii growth: The effect of 12b and drugs on kinetics of T. gondii RH-GFP growth was performed as follows: 1 × 10^4 per well of Hs27 cells were seeded on black, 96-well, tissue culture-treated plates with optical bottoms in DMEM cell culture medium.
Assay 1—After 72 h of incubation, the medium was removed and then 1 × 10^5 per well of tachyzoites of the RH strain were added to the cell monolayers, in DMEM without phenol red with 3% HIFBS. One hour later, the compound 12b and drugs dilutions in the DMEM without phenol red medium were added to the Hs27 cells with T. gondii.
The plates were read with covered lids, and both excitation (475 nm) and emission (509 nm) from the bottom using multimode microplate reader SpectraMax® i3. Additionally, fluorescence measurement was performed every 24 h. The plates were incubated at 37 °C with 5% of CO2. The results were expressed as mean fluorescent intensity (MFI). The initial value for 1 × 10^5 of T. gondii RH-GFP was 37,000 MFI (log 4.57). The lower limit of detection was 1000 MFI (log 3.0). Data presented as a logarithm of mean fluorescence intensity (logMFI) on concentration and time dependent curves. All experiments were performed in triplicate.

[7] = Toxoplasma gondii, HS27, 96 h; read-out: IC50 (50% inhibition of T. gondii proliferation)
[8] = ratio of CC30 (Hs27) to IC50 (T. gondii); 1b–12b and positive controls

Structure (SMILES)	IC50 (50% inhibition of T. gondii proliferation) [1] [µg/mL]	CC30 (cytotoxic concentration causing 30% of cells proliferation inhibition) [2] [µg/mL]	IC50 [3, 7] [µg/mL]	SI (selectivity index, CC30/IC50) [3, 8]	also measured
Cc1nc[nH]c1C(=O)NNC(=S)Nc1ccccc1F [1a]	68.83	289.60	–	–	–
Cc1nc[nH]c1-c1nnc(Nc2ccccc2F)s1 [1b]	–	157.71	26.2 (≈ 95.1 µM)	–	–
Cc1nc[nH]c1C(=O)NNC(=S)Nc1cccc(F)c1 [2a]	113.45	125.17	–	–	–
Cc1nc[nH]c1-c1nnc(Nc2cccc(F)c2)s1 [2b]	–	18.96	7.04 (≈ 25.6 µM)	2.69	number of intravacuolar tachyzoites (Assay B) [4]: significant reduction; percentage of infected cells (Assay B) [4]: still the same; size of parasitophorous vacuole (Assay B) [4]: significant reduction; number of tachyzoites per vacuole (Assay A) [5]: significant reductions; percentage of infected cells (Assay A) [5]: significant reductions
Cc1nc[nH]c1C(=O)NNC(=S)Nc1ccc(F)cc1 [3a]	110.31	266.20	–	–	–
Cc1nc[nH]c1-c1nnc(Nc2ccc(F)cc2)s1 [3b]	–	26.17	11.4 (≈ 41.5 µM)	2.29	–
Cc1nc[nH]c1C(=O)NNC(=S)Nc1ccccc1Cl [4a]	35.61	143.15	–	–	–
Cc1nc[nH]c1-c1nnc(Nc2ccccc2Cl)s1 [4b]	–	24.69	12.4 (≈ 42.4 µM)	2.00	–
Cc1nc[nH]c1C(=O)NNC(=S)Nc1cccc(Cl)c1 [5a]	24.15	96.78	–	–	–
Cc1nc[nH]c1-c1nnc(Nc2cccc(Cl)c2)s1 [5b]	–	17.88	3.65 (≈ 12.5 µM)	4.90	number of intravacuolar tachyzoites (Assay B) [4]: significant reduction; percentage of infected cells (Assay B) [4]: still the same; size of parasitophorous vacuole (Assay B) [4]: significant reduction; number of tachyzoites per vacuole (Assay A) [5]: significant reductions; percentage of infected cells (Assay A) [5]: significant reductions
Cc1nc[nH]c1C(=O)NNC(=S)Nc1ccc(Cl)cc1 [6a]	73.37	94.12	–	–	–
Cc1nc[nH]c1-c1nnc(Nc2ccc(Cl)cc2)s1 [6b]	–	45.97	8.36 (≈ 28.7 µM)	5.50	–
Cc1nc[nH]c1C(=O)NNC(=S)Nc1ccccc1Br [7a]	27.65	205.31	–	–	–
Cc1nc[nH]c1-c1nnc(Nc2ccccc2Br)s1 [7b]	–	29.71	8.77 (≈ 26.1 µM)	3.39	–
Cc1nc[nH]c1C(=O)NNC(=S)Nc1cccc(Br)c1 [8a]	15.64	96.12	–	–	–
Cc1nc[nH]c1-c1nnc(Nc2cccc(Br)c2)s1 [8b]	–	20.55	3.83 (≈ 11.4 µM)	5.37	number of intravacuolar tachyzoites (Assay B) [4]: significant reduction; percentage of infected cells (Assay B) [4]: still the same; size of parasitophorous vacuole (Assay B) [4]: significant reduction; number of tachyzoites per vacuole (Assay A) [5]: significant reductions; percentage of infected cells (Assay A) [5]: significant reductions
Cc1nc[nH]c1C(=O)NNC(=S)Nc1ccc(Br)cc1 [9a]	14.57	48.89	–	–	–
Cc1nc[nH]c1-c1nnc(Nc2ccc(Br)cc2)s1 [9b]	–	21.52	5.41 (≈ 16.1 µM)	3.98	–
Cc1nc[nH]c1C(=O)NNC(=S)Nc1ccccc1I [10a]	20.31	101.58	–	–	–
Cc1nc[nH]c1-c1nnc(Nc2ccccc2I)s1 [10b]	–	89.54	11 (≈ 28.8 µM)	8.13	–
Cc1nc[nH]c1C(=O)NNC(=S)Nc1cccc(I)c1 [11a]	10.30	85.57	–	–	–
Cc1nc[nH]c1-c1nnc(Nc2cccc(I)c2)s1 [11b]	–	36.48	4.49 (≈ 11.7 µM)	8.13	number of intravacuolar tachyzoites (Assay B) [4]: significant reduction; percentage of infected cells (Assay B) [4]: still the same; size of parasitophorous vacuole (Assay B) [4]: significant reduction; number of tachyzoites per vacuole (Assay A) [5]: significant reductions; percentage of infected cells (Assay A) [5]: significant reductions
Cc1nc[nH]c1C(=O)NNC(=S)Nc1ccc(I)cc1 [12a]	22.01	71.58	–	–	–
O=C1C(O)=C([C@H]2CC[C@H](c3ccc(Cl)cc3)CC2)C(=O)c2ccccc21 [Atovaquone (ATO), Atovaquone, reference compound]	–	54.26	0.24 (≈ 0.654 µM)	227.56	effect on the kinetics of T. gondii growth [6]: only moderately slow down the proliferation of tachyzoites
CCc1nc(N)nc(N)c1-c1ccc(Cl)cc1 [Pyrimethamine (PYR), Pyrimethamine, reference compound]	–	45.26	–	15.85	IC50 ([3]; Toxoplasma gondii, HS27, 96 h, read-out: IC50 (50% inhibition of T. gondii proliferation)): 2.86 µg/mL (≈ 11.5 µM); effect on the kinetics of T. gondii growth [6]: only moderately slow down the proliferation of tachyzoites

Source: publication PMC8145641 (Cells, 2021)
